From ChEMBL document CHEMBL5465560, “Selectivity Literature for EUbOPEN Chemogenomic Library” (2024)
One block for each compound: values may come before it.

Experiments:
[1] = target: T1, Interleukin-1 receptor-associated kinase 3 (Homo sapiens) (UniProt Q9Y616); assay: Selectivity interaction (KinomeScan (DiscoverX)) EUB0000666a IRAK3; settings: at 10 µM
T1 sequence (whole entry): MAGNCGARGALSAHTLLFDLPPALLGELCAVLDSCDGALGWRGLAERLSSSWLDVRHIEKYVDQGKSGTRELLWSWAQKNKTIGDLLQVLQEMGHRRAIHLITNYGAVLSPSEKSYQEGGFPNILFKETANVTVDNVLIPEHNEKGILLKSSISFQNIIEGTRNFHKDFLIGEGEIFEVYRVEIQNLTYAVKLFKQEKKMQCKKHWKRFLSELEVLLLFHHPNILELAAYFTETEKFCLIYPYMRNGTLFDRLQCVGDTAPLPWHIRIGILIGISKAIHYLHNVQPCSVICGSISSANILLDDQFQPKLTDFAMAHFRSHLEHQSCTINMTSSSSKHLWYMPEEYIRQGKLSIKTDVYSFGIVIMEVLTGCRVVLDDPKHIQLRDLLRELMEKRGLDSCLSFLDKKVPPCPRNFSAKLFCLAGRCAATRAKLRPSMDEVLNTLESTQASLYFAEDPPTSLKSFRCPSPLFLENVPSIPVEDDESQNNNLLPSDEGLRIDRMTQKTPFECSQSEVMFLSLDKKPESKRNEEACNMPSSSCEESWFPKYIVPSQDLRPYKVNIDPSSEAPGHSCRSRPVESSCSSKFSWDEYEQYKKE

[2] = target: T2, Mitogen-activated protein kinase kinase kinase 5 (Homo sapiens) (UniProt Q99683); assay: Selectivity interaction (ActivX KiNativ screen (kinase selectivity in THP-1 cell lysates)) EUB0000639a MAP3K5; format: subcellular; settings: lysate, at 1 µM
T2 sequence (whole entry): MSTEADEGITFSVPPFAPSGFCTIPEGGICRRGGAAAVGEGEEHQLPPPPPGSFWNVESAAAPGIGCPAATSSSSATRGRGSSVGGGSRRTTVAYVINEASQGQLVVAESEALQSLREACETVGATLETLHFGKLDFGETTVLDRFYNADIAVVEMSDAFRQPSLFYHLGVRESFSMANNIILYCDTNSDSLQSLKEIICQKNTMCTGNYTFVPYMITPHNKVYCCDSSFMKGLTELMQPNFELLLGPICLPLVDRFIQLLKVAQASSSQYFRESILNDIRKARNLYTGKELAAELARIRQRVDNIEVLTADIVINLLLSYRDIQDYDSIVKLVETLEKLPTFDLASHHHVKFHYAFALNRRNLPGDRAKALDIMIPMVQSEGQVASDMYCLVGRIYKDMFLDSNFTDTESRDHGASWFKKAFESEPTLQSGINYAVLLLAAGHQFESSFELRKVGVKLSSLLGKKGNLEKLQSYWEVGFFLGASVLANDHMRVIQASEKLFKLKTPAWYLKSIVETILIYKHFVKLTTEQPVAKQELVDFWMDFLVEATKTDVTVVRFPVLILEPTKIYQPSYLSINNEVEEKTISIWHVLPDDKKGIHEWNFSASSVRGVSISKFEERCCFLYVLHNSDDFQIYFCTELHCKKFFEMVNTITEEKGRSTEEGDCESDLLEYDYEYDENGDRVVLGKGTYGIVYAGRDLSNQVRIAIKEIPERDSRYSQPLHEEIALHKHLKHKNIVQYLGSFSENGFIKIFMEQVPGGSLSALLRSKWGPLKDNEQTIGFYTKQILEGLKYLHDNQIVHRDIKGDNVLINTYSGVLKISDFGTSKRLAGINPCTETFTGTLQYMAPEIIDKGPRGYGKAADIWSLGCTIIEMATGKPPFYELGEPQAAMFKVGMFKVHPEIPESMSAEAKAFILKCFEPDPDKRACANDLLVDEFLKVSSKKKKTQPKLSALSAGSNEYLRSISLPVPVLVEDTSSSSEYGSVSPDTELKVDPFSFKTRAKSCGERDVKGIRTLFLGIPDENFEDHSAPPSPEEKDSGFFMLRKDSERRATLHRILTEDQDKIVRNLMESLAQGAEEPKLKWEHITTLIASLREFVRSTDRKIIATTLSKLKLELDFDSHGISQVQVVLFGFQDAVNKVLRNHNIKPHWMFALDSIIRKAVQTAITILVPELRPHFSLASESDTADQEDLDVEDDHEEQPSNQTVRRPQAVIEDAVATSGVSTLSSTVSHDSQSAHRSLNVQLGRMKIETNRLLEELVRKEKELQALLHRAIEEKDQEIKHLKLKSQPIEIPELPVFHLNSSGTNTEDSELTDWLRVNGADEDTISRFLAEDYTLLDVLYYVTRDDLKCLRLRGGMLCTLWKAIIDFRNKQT

[3] = target: Histone-lysine N-methyltransferase, H3 lysine-36 specific (Homo sapiens) (UniProt Q96L73); assay: Selectivity interaction (Transferase panel (protein, RNA, and DNA methyltransferases. and EP300 (acetyltransferase))) EUB0000270b NSD1
[4] = target: Protein kinase C eta type (Homo sapiens) (UniProt P24723); assay: Selectivity interaction (KinomeScan (DiscoverX)) EUB0000229b PRKCH; settings: at 10 µM
Chain of Protein kinase C eta type (Homo sapiens) (P24723 whole entry): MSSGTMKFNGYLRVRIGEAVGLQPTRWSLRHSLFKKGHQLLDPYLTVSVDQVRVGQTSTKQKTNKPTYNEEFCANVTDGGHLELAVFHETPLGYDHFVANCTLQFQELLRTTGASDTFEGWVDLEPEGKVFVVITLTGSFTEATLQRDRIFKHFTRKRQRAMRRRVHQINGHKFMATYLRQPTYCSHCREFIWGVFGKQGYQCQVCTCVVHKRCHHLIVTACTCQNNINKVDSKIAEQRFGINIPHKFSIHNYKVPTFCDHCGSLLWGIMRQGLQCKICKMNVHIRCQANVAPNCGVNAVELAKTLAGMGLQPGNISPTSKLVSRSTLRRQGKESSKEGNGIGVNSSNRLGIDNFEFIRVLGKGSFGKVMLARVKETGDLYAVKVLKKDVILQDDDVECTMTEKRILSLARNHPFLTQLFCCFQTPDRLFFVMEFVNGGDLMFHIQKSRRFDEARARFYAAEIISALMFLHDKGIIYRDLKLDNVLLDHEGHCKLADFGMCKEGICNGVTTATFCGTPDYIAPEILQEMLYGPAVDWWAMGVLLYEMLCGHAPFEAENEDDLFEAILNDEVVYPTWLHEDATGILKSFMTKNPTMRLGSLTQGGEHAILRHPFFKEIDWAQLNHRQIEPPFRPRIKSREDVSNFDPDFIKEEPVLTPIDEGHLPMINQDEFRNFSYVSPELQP

Chain of Histone-lysine N-methyltransferase, H3 lysine-36 specific (Homo sapiens) (Q96L73 whole entry): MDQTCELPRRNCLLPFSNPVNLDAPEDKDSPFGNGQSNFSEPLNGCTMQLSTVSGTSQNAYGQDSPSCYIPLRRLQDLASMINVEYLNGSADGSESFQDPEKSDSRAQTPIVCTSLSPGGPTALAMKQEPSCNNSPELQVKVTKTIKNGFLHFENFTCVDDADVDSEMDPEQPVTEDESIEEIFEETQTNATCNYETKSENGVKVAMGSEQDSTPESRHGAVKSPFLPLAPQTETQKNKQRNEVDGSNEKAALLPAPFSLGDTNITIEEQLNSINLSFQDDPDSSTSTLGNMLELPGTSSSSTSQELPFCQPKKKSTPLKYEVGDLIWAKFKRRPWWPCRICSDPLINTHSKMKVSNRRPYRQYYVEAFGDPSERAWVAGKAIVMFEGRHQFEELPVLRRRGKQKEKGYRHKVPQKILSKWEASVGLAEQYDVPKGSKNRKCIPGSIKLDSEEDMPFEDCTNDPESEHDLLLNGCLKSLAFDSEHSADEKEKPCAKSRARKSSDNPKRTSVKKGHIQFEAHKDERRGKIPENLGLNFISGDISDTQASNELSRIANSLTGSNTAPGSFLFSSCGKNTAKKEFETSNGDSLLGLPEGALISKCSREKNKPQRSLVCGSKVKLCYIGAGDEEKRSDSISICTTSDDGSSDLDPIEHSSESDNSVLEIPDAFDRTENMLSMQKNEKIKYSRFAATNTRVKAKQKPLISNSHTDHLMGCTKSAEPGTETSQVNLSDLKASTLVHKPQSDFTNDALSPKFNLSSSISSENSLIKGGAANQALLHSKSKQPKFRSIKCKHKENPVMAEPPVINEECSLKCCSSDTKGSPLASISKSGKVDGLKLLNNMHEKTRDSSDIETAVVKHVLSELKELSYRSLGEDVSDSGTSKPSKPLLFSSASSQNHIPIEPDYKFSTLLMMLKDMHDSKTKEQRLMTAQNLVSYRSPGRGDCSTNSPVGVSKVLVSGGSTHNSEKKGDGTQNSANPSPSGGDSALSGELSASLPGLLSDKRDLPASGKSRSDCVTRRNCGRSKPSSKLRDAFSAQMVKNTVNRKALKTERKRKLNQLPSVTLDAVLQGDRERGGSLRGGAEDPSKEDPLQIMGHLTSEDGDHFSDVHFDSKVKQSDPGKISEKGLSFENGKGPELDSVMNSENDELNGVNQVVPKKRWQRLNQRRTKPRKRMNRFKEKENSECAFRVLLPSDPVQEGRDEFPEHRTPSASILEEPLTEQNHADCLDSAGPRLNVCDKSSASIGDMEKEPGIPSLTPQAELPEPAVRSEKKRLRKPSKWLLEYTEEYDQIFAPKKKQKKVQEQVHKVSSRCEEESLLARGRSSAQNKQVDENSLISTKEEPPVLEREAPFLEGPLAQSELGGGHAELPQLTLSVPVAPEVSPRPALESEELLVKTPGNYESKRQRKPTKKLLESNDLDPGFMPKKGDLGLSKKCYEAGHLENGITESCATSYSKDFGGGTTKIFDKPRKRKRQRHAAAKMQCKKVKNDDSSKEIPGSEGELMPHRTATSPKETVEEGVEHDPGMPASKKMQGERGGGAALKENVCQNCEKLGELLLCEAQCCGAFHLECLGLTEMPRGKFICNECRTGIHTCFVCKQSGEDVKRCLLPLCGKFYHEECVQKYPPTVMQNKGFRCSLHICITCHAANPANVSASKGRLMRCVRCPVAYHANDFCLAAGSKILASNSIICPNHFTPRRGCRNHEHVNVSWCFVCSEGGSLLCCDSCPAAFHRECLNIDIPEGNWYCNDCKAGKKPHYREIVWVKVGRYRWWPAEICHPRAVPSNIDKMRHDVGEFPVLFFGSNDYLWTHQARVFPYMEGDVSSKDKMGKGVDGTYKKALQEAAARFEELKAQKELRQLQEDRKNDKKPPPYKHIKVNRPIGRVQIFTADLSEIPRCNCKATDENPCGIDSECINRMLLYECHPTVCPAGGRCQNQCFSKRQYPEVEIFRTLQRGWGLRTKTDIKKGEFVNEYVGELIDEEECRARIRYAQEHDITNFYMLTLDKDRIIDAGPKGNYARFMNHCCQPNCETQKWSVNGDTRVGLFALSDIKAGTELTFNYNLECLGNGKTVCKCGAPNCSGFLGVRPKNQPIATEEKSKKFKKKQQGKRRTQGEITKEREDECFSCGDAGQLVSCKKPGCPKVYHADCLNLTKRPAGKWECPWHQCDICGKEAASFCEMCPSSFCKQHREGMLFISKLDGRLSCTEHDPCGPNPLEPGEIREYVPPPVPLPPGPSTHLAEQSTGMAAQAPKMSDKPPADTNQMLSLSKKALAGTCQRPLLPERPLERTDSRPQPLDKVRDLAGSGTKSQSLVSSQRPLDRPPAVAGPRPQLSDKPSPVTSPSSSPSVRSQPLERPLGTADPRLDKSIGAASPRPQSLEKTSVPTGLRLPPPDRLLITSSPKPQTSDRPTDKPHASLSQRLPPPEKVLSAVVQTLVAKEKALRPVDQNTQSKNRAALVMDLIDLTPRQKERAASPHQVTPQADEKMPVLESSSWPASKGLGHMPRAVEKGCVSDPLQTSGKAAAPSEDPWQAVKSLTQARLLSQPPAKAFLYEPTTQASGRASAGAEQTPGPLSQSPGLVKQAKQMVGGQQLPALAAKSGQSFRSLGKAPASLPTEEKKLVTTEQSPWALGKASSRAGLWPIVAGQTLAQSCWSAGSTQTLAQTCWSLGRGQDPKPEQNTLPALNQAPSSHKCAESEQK

SMILES: O=C(NOC[C@H](O)CO)c1ccc(F)c(F)c1Nc1ccc(I)cc1F
- % of control [1]: 100%

- % of inhibition [2]: -29.6%
SMILES: CC[C@@H]1[C@H](F)C(=O)N[C@@H]1COc1nccc2cc(C(N)=O)c(OC)cc12 [ZIMLOVISERTIB]

- % activity ([3]; at 1 µM): > 90%
- % activity ([3]; at 10 µM): > 80%
SMILES: Cc1cc(CN)cc(C)c1-c1ncn(C)c1-c1cncn1C

SMILES: COc1cc(N(C)c2ccnc3ccc(C(F)(F)F)cc23)cc(OC)c1OC
- % binding [4]: 96%
